pIC50: −log10 of the molar value.

The values below come from US10457637B2, “Benzenesulfonamide derivatives as inverse agonists of retinoid-related orphan receptor gamma (RORγ(T))” (GALDERMA RESEARCH & DEVELOPMENT, priority 2014, dated 2019).

Chain of ROR gamma ligand-binding domain (hRORg) (P51449 269-508): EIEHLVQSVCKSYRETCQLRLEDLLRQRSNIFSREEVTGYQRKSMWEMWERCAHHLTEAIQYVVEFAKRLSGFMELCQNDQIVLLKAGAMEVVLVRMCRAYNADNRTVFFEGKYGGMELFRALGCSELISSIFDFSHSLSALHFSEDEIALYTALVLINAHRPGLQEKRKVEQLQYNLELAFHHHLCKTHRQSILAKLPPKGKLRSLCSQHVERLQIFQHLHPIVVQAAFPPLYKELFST

The first assay has as its target ROR gamma ligand-binding domain (hRORg) (Homo sapiens (Human), UniProt P51449). As to the kind of experiment: GAL4-RORγ transactivation (luciferase reporter, HG5LN HeLa line). The format is cell-based. The settings on record: 18 hours incubation. The source says:
GAL4-RORγ Transactivation
The RORγ transactivation model was developed from the line HG5LN, which is a HeLa line that stably expresses a luciferase reporter gene controlled by a pentamer of the GAL4 recognition domain of yeast and of a β-globin promoter. The HG5LN line was stably transfected by the DNA-binding domain (DBD) of GAL4 fused to the ROR gamma ligand-binding domain (LBD). Molecules that inhibit the ROR gamma constitutive activity reduce the luciferase expression, thus leading to a reduction in the emitted luminescence.
The cells are seeded in 384-well plates (5000 cells in 45 μL/well of culture medium containing 10% fetal calf serum) and incubated for 4 hours at 37° C., 5% CO2. 5 μL of the test molecules (compounds described in the tables described above) are then added to each well and the plates are incubated for 18 hours at a temperature of 37° C. under 5% of CO2. 20 μL of luciferase substrate (Promega) are added to each well and the luminescence emitted is read by a microplate reader.
The luminescence units (“RLU”) are normalized by positive controls (“POS” containing a saturated concentration of benzenesulfonamide, N-(2,2,2-trifluoroethyl)-N-[4-[2,2,2-trifluoro-1-hydroxy-1-(trifluoromethyl)ethyl]phenyl]) and negative controls (“NEG” containing DMSO): % inhibition=((RLU−NEG)*100)/(POS−NEG). The IC50 values are calculated from a 4-parameter logistic model using the XLFit software (IDBS).
Background: Reporter assays use an easily measured gene product as a stand-in for the process of interest.
The compound `CCc1ccc(N(CC(C)C)S(=O)(=O)c2ccc(OCC3(F)CCOCC3)c(S(C)(=N)=O)c2)cc1` (centres unmarked) [compound 30, N-(4-ethylphenyl)-4-((4-fluorotetrahydro-2H-pyran-4-yl)methoxy)-N-isobutyl-3-(S-methylsulfonimidoyl)benzenesulfonamide] gave a pIC50 above 7.00.

With `CCc1ccc(N(CC(C)C)S(=O)(=O)c2ccc(NCc3ccncc3)c(S(C)(=N)=O)c2)cc1` (centres unmarked) [compound 64, N-(4-ethylphenyl)-N-isobutyl-3-(S-methylsulfonimidoyl)-4-((pyridin-4-ylmethyl)amino)benzenesulfonamide], the pIC50 was above 7.00.

`CCc1ccc(N(CC(C)C)S(=O)(=O)c2ccc(N3CCSCC3)c(S(C)(=N)=O)c2)cc1` (centres unmarked) [compound 87, N-(4-ethylphenyl)-N-isobutyl-3-(S-methylsulfonimidoyl)-4-thiomorpholinobenzenesulfonamide] gave a pIC50 above 7.00.

Compound `CCc1ccc(N(CC(C)C)S(=O)(=O)c2ccc(NC[C@@H]3[C@H]4COC[C@@H]34)c(S(C)(=N)=O)c2)cc1` (stereo partly drawn) [compound 91, 4-((((1R,5S,6S)-3-oxabicyclo[3.1.0]hexan-6-yl)methyl)amino)-N-(4-ethylphenyl)-N-isobutyl-3-(S-methylsulfonimidoyl)benzenesulfonamide] showed a pIC50 above 7.00.

`CCc1ccc(N(CC(C)C)S(=O)(=O)c2ccc(NC[C@H]3CNC(=O)O3)c(S(C)(=N)=O)c2)cc1` (stereo partly drawn) [compound 106, N-(4-ethylphenyl)-N-isobutyl-3-(S-methylsulfonimidoyl)-4-((((S)-2-oxooxazolidin-5-yl)methyl)amino)benzenesulfonamide] showed a pIC50 below 6.00.

Take `CCc1ccc(N(CC(C)C)S(=O)(=O)c2ccc(N3CCCC4(COC4)C3)c(S(C)(=N)=O)c2)cc1` (centres unmarked) [compound 109, N-(4-ethylphenyl)-N-isobutyl-3-(S-methylsulfonimidoyl)-4-(2-oxa-6-azaspiro[3.5]nonan-6-yl)benzenesulfonamide]: the pIC50 was below 6.00.

Turning to `CCc1ccc(N(CC(C)C)S(=O)(=O)c2ccc(N3CC4(CN(C(=O)OC(C)(C)C)C4)C3)c(S(C)(=N)=O)c2)cc1` (centres unmarked) [compound 110, tert-butyl 6-(4-(N-(4-ethylphenyl)-N-isobutylsulfamoyl)-2-(S-methylsulfonimidoyl)phenyl)-2,6-diazaspiro[3.3]heptane-2-carboxylate], the pIC50 is below 6.00.

`CCc1ccc(N(CC(C)C)S(=O)(=O)c2ccc(N3CC4(COC4)C3)c(S(C)(=N)=O)c2)cc1` (centres unmarked) [compound 111, N-(4-ethylphenyl)-N-isobutyl-3-(S-methylsulfonimidoyl)-4-(2-oxa-6-azaspiro[3.3]heptan-6-yl)benzenesulfonamide]: the pIC50 is above 7.00.

`CCc1ccc(N(CC(C)C)S(=O)(=O)c2ccc(N3CC4(C3)CS(=O)(=O)C4)c(S(C)(=N)=O)c2)cc1` (centres unmarked) [compound 113, 4-(2,2-dioxido-2-thia-6-azaspiro[3.3]heptan-6-yl)-N-(4-ethylphenyl)-N-isobutyl-3-(S-methylsulfonimidoyl)benzenesulfonamide] gave a pIC50 of 6.00 to 7.00.

In turn, `CCc1ccc(N(CC(C)C)S(=O)(=O)c2ccc(N3CCC4(CC3)COC4)c(S(C)(=N)=O)c2)cc1` (centres unmarked) [compound 114, N-(4-ethylphenyl)-N-isobutyl-3-(S-methylsulfonimidoyl)-4-(2-oxa-7-azaspiro[3.5]nonan-7-yl)benzenesulfonamide] gave a pIC50 of 6.00 to 7.00.

Compound `CCc1ccc(N(CC(C)C)S(=O)(=O)c2ccc(N3C[C@H]4C[C@@H]3CO4)c(S(C)(=N)=O)c2)cc1` (stereo partly drawn) [compound 115, 4-((1R,4R)-2-oxa-5-azabicyclo[2.2.1]heptan-5-yl)-N-(4-ethylphenyl)-N-isobutyl-3-(S-methylsulfonimidoyl)benzenesulfonamide] gave a pIC50 of 6.00 to 7.00.

`CCc1ccc(N(CC(C)C)S(=O)(=O)c2ccc(N3CC4CC3CO4)c(S(C)(=N)=O)c2)cc1` [compound 117, 4-((1R,4R)-2-oxa-5-azabicyclo[2.2.1]heptan-5-yl)-N-(4-ethylphenyl)-N-isobutyl-3-(S-methylsulfonimidoyl)benzenesulfonamide] had a pIC50 of 6.00 to 7.00.

With `CCc1ccc(N(CC(C)C)S(=O)(=O)c2ccc(NCc3nn[nH]n3)c(S(C)(=N)=O)c2)cc1` (centres unmarked) [compound 118, 4-(((2H-tetrazol-5-yl)methyl)amino)-N-(4-ethylphenyl)-N-isobutyl-3-(S-methylsulfonimidoyl)benzenesulfonamide], the pIC50 was below 6.00.

`CCc1ccc(N(CC(C)C)S(=O)(=O)c2ccc(N3CC4(CNC4)C3)c(S(C)(=N)=O)c2)cc1` (centres unmarked) [compound 121, -(4-ethylphenyl)-N-isobutyl-3-(S-methylsulfonimidoyl)-4-(2,6-diazaspiro[3.3]heptan-2-yl)benzenesulfonamide]: the pIC50 is below 6.00.

With `CCc1ccc(N(CC(C)C)S(=O)(=O)c2ccc(N3CC4(CN(C(C)=O)C4)C3)c(S(C)(=N)=O)c2)cc1` (centres unmarked) [compound 122, 4-(6-acetyl-2,6-diazaspiro[3.3]heptan-2-yl)-N-(4-ethylphenyl)-N-isobutyl-3-(S-methylsulfonimidoyl)benzenesulfonamide], the pIC50 is below 6.00.

Turning to `CCc1ccc(N(CC(C)C)S(=O)(=O)c2ccc(NCC3(CC)COC3)c(S(C)(=N)=O)c2)cc1` (centres unmarked) [compound 126, 4-(((3-ethyloxetan-3-yl)methyl)amino)-N-(4-ethylphenyl)-N-isobutyl-3-(S-methylsulfonimidoyl)benzenesulfonamide], the pIC50 was below 6.00.

The compound `CCc1ccc(N(CC(C)C)S(=O)(=O)c2ccc(NCc3ccnc(OC)c3)c(S(C)(=N)=O)c2)cc1` (centres unmarked) [compound 127, N-(4-ethylphenyl)-N-isobutyl-4-(((2-methoxypyridin-4-yl)methyl)amino)-3-(S-methylsulfonimidoyl)benzenesulfonamide] had a pIC50 of 6.00 to 7.00.

Consider `CCc1ccc(N(CC(C)C)S(=O)(=O)c2ccc(NCC3(N4CCCC4)COC3)c(S(C)(=N)=O)c2)cc1` (centres unmarked) [compound 132, N-(4-ethylphenyl)-N-isobutyl-3-(S-methylsulfonimidoyl)-4-(((3-(pyrrolidin-1-yl)oxetan-3-yl)methyl)amino)benzenesulfonamide], for which the pIC50 was below 6.00.

Regarding `CCc1ccc(N(CC(C)C)S(=O)(=O)c2ccc(N3CCCOCC3)c(S(C)(=N)=O)c2)cc1` (centres unmarked) [compound 137, N-(4-ethylphenyl)-N-isobutyl-3-(S-methylsulfonimidoyl)-4-(1,4-oxazepan-4-yl)benzenesulfonamide], the pIC50 was 6.00 to 7.00.

Take `CCc1ccc(N(CC(C)C)S(=O)(=O)c2ccc(N3CCNCC3)c(S(C)(=N)=O)c2)cc1` (centres unmarked) [compound 140, N-(4-ethylphenyl)-N-isobutyl-3-(S-methylsulfonimidoyl)-4-(piperazin-1-yl)benzenesulfonamide]: the pIC50 is below 6.00.

Take `COc1ccc(N(C(C)C)S(=O)(=O)c2ccc(OCC3CCOCC3)c(S(C)(=N)=O)c2)c(C)c1` (centres unmarked) [compound 143, N-isopropyl-N-(4-methoxy-2-methylphenyl)-3-(S-methylsulfonimidoyl)-4-((tetrahydro-2H-pyran-4-yl)methoxy)benzenesulfonamide]: the pIC50 was 6.00 to 7.00.

The subject of the next assay is IL-17A secretion by CD4+ cells. As to the kind of experiment: IL-17A secretion by CD4+ cells (HTRF). In kind it is cell-based. To be noted: 96 h; human CD4+ cells activated with anti-CD3 and anti-CD28, 4 days of incubation; read-out: IC50 hCD4/IL17. The procedure: This model allows measurement of the effect of inhibitors on IL-17A secretion by CD4+ cells. […] The amount of IL-17a secreted is measured by the TR-FRET (kit HTRF® Human Interleukin 17A (Cisbio, #64H17PEC)) technology.
The cells are rapidly thawed, resuspended in their culture medium (RPMI inactivated 10% FCS) supplemented with soluble anti-CD28 antibodies and seeded (100 000 cells/well) in 96-well plates precoated with anti-CD3 antibodies. The cells are then treated with the ranges of inhibitors to be tested (from 1000 nM to 0.05 nM, 0.1% DMSO). […] The IC50 values are calculated from a 4-parameter logistic model using the XLFit software (IDBS).
In general terms: TR-FRET usually uses a lanthanide donor and a delayed reading to cut background.
As for `CCc1ccc(N(CC(C)C)S(=O)(=O)c2ccc(OCC3CCOCC3)c(S(=N)(=O)CC)c2)cc1` (centres unmarked) [compound 18, N-(4-ethylphenyl)-N-isobutyl-3-ethanesulfoximino-4-(tetrahydropyran-4-ylmethoxy)benzenesulfonamide], the pIC50 is above 7.00.

`CCc1ccc(N(CC(C)C)S(=O)(=O)c2ccc(OCC3(F)CCOCC3)c(S(C)(=N)=O)c2)cc1` (centres unmarked) [compound 30, N-(4-ethylphenyl)-4-((4-fluorotetrahydro-2H-pyran-4-yl)methoxy)-N-isobutyl-3-(S-methylsulfonimidoyl)benzenesulfonamide]: the pIC50 was above 7.00.

On to `CCc1ccc(N(CC(C)C)S(=O)(=O)c2ccc(NCC3CCOCC3)c(S(C)(=N)=O)c2)cc1` (centres unmarked) [compound 52, N-(4-ethylphenyl)-N-isobutyl-3-(S-methysulfonimidoyl)-4-[(tetrahydropyran-4-ylmethyl)amino]benzenesulfonamide], for which the pIC50 was above 7.00.

In the case of `CCc1ccc(N(CC(C)C)S(=O)(=O)c2ccc(NCc3ccncc3)c(S(C)(=N)=O)c2)cc1` (centres unmarked) [compound 64, N-(4-ethylphenyl)-N-isobutyl-3-(S-methylsulfonimidoyl)-4-((pyridin-4-ylmethyl)amino)benzenesulfonamide], the pIC50 is above 7.00.

Turning to `CCc1ccc(N(CC(C)C)S(=O)(=O)c2ccc(OCC3CCOCC3)c(S(N)(=O)=O)c2)cc1` [compound 66, 4-(tetrahydropyran-4-ylmethoxy)benzene-1,3-disulfonic acid 3-amide 1-[(4-ethylphenyl)isobutylamide]], the pIC50 is above 7.00.

For `CCc1ccc(N(CC(C)C)S(=O)(=O)c2ccc(N3CCSCC3)c(S(C)(=N)=O)c2)cc1` (centres unmarked) [compound 87, N-(4-ethylphenyl)-N-isobutyl-3-(S-methylsulfonimidoyl)-4-thiomorpholinobenzenesulfonamide], the pIC50 is above 7.00.

In the case of `CCc1ccc(N(CC(C)C)S(=O)(=O)c2ccc(NC[C@@H]3[C@H]4COC[C@@H]34)c(S(C)(=N)=O)c2)cc1` (stereo partly drawn) [compound 91, 4-((((1R,5S,6S)-3-oxabicyclo[3.1.0]hexan-6-yl)methyl)amino)-N-(4-ethylphenyl)-N-isobutyl-3-(S-methylsulfonimidoyl)benzenesulfonamide], the pIC50 was above 7.00.

Regarding `CCc1ccc(N(CC(C)C)S(=O)(=O)c2ccc(NCC3(CC)CCOCC3)c(S(C)(=N)=O)c2)cc1` (centres unmarked) [compound 124, N-(4-ethylphenyl)-4-(((4-ethyltetrahydro-2H-pyran-4-yl)methyl)amino)-N-isobutyl-3-(S-methylsulfonimidoyl)benzenesulfonamide], the pIC50 was above 7.00.
